Test results published in patent publication US11066369B2, “N-(pyridin-2-yl)pyridine-sulfonamide derivatives and their use in the treatment of disease” (Novartis AG, priority 2016, dated 2021).
Counter-ions that a name gives are not always drawn. Like-named read-outs stand apart in the source and are kept apart here.

Target: T1, horseradish peroxidase (HRP) tagged delF508-CFTR (Homo sapiens, UniProt P13569, DEL508-508)
T1 construct: expressed in transfected cells
Experiment: Measurement of delF508-CFTR-HRP surface expression in CFBE41o- cells;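 as to DelF508-CFTR-HRP Amax %: percent efficacy relative to reference corrector lumacaftor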
Type: cell-based
Settings: for Emax: read-out: DelF508-CFTR-HRP Amax %
Summary of the method: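 Surface-trafficked delF508-CFTR detected via extracellular HRP tag, read as luminescence from a membrane-impermeant substrate in CFBE41o- cells. Cells pre-induced 48h with 500 ng/mL doxycycline, then exposed 24h at 37° C to a 10-point, 3-fold dilution series from 10 μM (DMSO ≤0.5%). Triplicate dose-responses fitted logistically for EC50 after per-plate normalization; fold change versus reference compound.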

[1] = delF508-CFTR-HRP surface expression, CFBE41o- cells
[2] = delF508-CFTR-HRP surface expression, CFBE41o- cells, read-out: DelF508-CFTR-HRP EC50
[3] = CFBE41o- cells, mean of at least two replicates, read-out: DelF508-CFTR-HRP EC50
[4] = CFBE41o- cells, surface expression Amax

T1 sequence (P13569 with tags, fused parts or gaps DEL508-508): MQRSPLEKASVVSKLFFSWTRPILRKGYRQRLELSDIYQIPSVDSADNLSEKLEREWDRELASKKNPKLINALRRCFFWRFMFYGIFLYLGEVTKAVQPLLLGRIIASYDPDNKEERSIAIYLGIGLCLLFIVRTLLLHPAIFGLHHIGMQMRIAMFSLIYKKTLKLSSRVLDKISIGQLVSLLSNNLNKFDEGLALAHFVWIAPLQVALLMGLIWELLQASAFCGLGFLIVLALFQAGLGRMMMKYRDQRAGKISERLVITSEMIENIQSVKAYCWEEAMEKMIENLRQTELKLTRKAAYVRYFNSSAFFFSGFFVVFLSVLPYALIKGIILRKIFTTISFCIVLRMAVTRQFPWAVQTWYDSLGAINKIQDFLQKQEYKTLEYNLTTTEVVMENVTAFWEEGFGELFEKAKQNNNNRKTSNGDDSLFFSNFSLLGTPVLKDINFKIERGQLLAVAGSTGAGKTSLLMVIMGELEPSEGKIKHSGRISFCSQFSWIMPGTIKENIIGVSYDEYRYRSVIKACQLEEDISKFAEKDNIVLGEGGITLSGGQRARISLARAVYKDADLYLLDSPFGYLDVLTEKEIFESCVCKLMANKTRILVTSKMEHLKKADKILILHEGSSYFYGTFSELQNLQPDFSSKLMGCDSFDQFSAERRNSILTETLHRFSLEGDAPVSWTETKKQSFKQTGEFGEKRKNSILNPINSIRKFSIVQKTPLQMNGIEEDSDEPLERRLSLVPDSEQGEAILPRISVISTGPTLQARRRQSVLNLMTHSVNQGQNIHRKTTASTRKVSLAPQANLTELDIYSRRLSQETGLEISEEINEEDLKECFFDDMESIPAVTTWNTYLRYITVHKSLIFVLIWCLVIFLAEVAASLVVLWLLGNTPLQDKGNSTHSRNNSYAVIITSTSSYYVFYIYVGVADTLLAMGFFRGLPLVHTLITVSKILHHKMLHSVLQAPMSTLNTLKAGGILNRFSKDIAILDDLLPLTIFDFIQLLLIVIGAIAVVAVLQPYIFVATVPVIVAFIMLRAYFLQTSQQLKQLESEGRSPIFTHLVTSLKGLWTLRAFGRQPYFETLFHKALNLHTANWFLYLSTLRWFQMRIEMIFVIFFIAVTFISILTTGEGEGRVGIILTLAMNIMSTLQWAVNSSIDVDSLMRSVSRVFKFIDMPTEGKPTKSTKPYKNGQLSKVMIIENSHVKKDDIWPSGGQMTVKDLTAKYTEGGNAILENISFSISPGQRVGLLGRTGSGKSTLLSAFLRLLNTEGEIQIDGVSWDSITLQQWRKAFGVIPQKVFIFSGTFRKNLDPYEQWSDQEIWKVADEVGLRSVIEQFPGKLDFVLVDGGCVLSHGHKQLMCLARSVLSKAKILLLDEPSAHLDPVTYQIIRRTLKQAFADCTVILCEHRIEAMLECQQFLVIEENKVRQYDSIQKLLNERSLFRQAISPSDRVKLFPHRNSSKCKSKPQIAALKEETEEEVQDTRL

| Structure (SMILES) | Emax [1] | EC50 [2] | EC50 [3] | Emax [4] | EC50 |
| --- | --- | --- | --- | --- | --- |
| CC(C)COc1ccccc1-c1nc(NS(=O)(=O)c2cccc(N3CCC[C@@](C)(C(=O)O)C3)n2)ccc1C(F)(F)F [Example 396, (R)-1-(6-(N-(6-(2-isobutoxyphenyl)-5-(trifluoromethyl)pyridin-2-yl)sulfamoyl)pyridin-2-yl)-3-methylpiperidine-3-carboxylic Acid] |  |  | 845 nM |  |  |
| Cc1cccc(C)c1-c1cc(C(F)(F)F)cc(NS(=O)(=O)c2cccc(N3CCN(C(=O)OC(C)(C)C)CC3)n2)n1 [Example 132, tert-butyl 4-(6-(N-(6-(2,6-dimethylphenyl)-4-(trifluoromethyl)pyridin-2-yl)sulfamoyl)pyridin-2-yl)piperazine-1-carboxylate] | 894% | 803 nM |  |  |  |
| Cc1ccc(F)cc1-c1nc(NS(=O)(=O)c2ccnc(N)c2)ccc1Cl [Example 46, 2-amino-N-(5-chloro-6-(5-fluoro-2-methylphenyl)pyridin-2-yl)pyridine-4-sulfonamide] | 339% | 1950 nM |  |  |  |
| CCOC(=O)C1(C)CCN(c2cccc(S(=O)(=O)Nc3ccc(C(F)(F)F)c(-c4c(C)cccc4C)n3)n2)CC1 [Example 266, ethyl 1-(6-{[6-(2,6-dimethylphenyl)-5-(trifluoromethyl)pyridin-2-yl]sulfamoyl}pyridin-2-yl)-4-methylpiperidine-4-carboxylate] |  | 1280 nM |  |  |  |
| Cc1ccc(C(F)(F)F)cc1-c1nc(NS(=O)(=O)c2ccnc(N)c2)ccc1Cl [Example 49, 2-amino-N-(5-chloro-6-(2-methyl-5-(trifluoromethyl)phenyl)pyridin-2-yl)pyridine-4-sulfonamide] | 333% | 3050 nM |  |  |  |
| O=S(=O)(Nc1ccc(Cl)c(-c2ccc(F)cc2Cl)n1)c1cccc(N2CCNCC2)n1 [Example 157, N-(5-chloro-6-(2-chloro-4-fluorophenyl)pyridin-2-yl)-6-(piperazin-1-yl)pyridine-2-sulfonamide] | 180% | 4280 nM |  |  |  |
| Cc1ccccc1-c1nc(NS(=O)(=O)c2cccc(N3CCN4C[C@@H](F)C[C@H]4C3)n2)ccc1C(F)(F)F [Example 137, 6-((7S,8aS)-7-fluorohexahydropyrrolo[1,2-a]pyrazin-2(1H)-yl)-N-(6-(o-tolyl)-5-(trifluoromethyl)pyridin-2-yl)pyridine-2-sulfonamide] | 854% | 1350 nM |  |  |  |
| Cc1ccccc1-c1nc(NS(=O)(=O)c2cccc(N3CCC34CNC4)n2)ccc1C(F)(F)F [Example 313, 6-(1,6-diazaspiro[3.3]heptan-1-yl)-N-(6-(o-tolyl)-5-(trifluoromethyl)pyridin-2-yl)pyridine-2-sulfonamide] | 128% | 4570 nM |  |  |  |
| Cc1ccccc1-c1nc(NS(=O)(=O)c2cccc(N3CCN(C(=O)OC(C)(C)C)C[C@H]3C(=O)O)n2)ccc1C(F)(F)F [Example 350, (2S)-4-[(tert-butoxy)carbonyl]-1-(6-{[6-(2-methylphenyl)-5-(trifluoromethyl)pyridin-2-yl]sulfamoyl}pyridin-2-yl)piperazine-2-carboxylic Acid] | 232% | 1900 nM |  |  |  |
| Cc1ccccc1-c1nc(NS(=O)(=O)c2cccc(N3C4CCC3CC(C(=O)O)C4)n2)ccc1C(F)(F)F (centres unmarked) [Example 346, 8-(6-{[6-(2-methylphenyl)-5-(trifluoromethyl)pyridin-2-yl]sulfamoyl}pyridin-2-yl)-8-azabicyclo[3.2.1]octane-3-carboxylic Acid] | 297% |  |  |  | 1750 nM |
| CC(C)COc1ccccc1-c1nc(NS(=O)(=O)c2cccc(N3CCCC(C)(C(=O)O)C3)n2)ccc1C(F)(F)F (centres unmarked) [Example 386, 1-(6-(N-(6-(2-isobutoxyphenyl)-5-(trifluoromethyl)pyridin-2-yl)sulfamoyl)pyridin-2-yl)-3-methylpiperidine-3-carboxylic Acid] |  |  | 605 nM |  |  |
| CC(C)COc1ccccc1-c1nc(NS(=O)(=O)c2cccc(N3CCC(C)(C(=O)O)CC3)n2)ccc1Cl [Example 397, 1-(6-(N-(5-chloro-6-(2-isobutoxyphenyl)pyridin-2-yl)sulfamoyl)pyridin-2-yl)-4-methylpiperidine-4-carboxylic Acid] |  |  | 1280 nM | 303% |  |
| C[C@@]1(C(=O)O)CCCN(c2cccc(S(=O)(=O)Nc3ccc(C4CC4)c(-c4ccccc4C4CC4)n3)n2)C1 [Example 407, (R)-1-(6-(N-(5-cyclopropyl-6-(2-cyclopropylphenyl)pyridin-2-yl)sulfamoyl)pyridin-2-yl)-3-methylpiperidine-3-carboxylic Acid] |  |  | 1610 nM | 468% |  |
| CC(F)(F)c1ccccc1-c1nc(NS(=O)(=O)c2cccc(N)n2)ccc1Cl [Example 48, 6-amino-N-(5-chloro-6-(2-(1,1-difluoroethyl)phenyl)pyridin-2-yl)pyridine-2-sulfonamide] | 334% | 2330 nM |  |  |  |
| Cc1ccccc1-c1nc(NS(=O)(=O)c2cccc(N3CCO[C@@H](C(=O)O)C3)n2)ccc1C(F)(F)F [Example 339, (2R)-4-(6-{[6-(2-methylphenyl)-5-(trifluoromethyl)pyridin-2-yl]sulfamoyl}pyridin-2-yl)morpholine-2-carboxylic Acid] | 122% | 2310 nM |  |  |  |

Further lines, with some results ahead:

| Emax [1] | EC50 [2] | EC50 [3] | Emax [4] | Structure (SMILES) | EC50 |
| --- | --- | --- | --- | --- | --- |
| 862% | 1110 nM |  |  | Cc1ccccc1-c1nc(NS(=O)(=O)c2cccc(N3CCN4CC(F)(F)C[C@H]4C3)n2)ccc1C(F)(F)F [Example 136, (S)-6-(7,7-difluorohexahydropyrrolo[1,2-a]pyrazin-2(1H)-yl)-N-(6-(o-tolyl)-5-(trifluoromethyl)pyridin-2-yl)pyridine-2-sulfonamide] |  |
| 193% | 3410 nM |  |  | COc1ccc(NS(=O)(=O)c2cccc(N)n2)nc1-c1c(C)cccc1C [Example 72, 6-amino-N-(6-(2,6-dimethylphenyl)-5-methoxypyridin-2-yl)pyridine-2-sulfonamide hydrochloride] |  |
| 412% | 1640 nM |  |  | Cc1cc(C)c(-c2nc(NS(=O)(=O)c3cccc(N)n3)ccc2Cl)c(C)c1 [Example 32, 6-amino-N-(5-chloro-6-mesitylpyridin-2-yl)pyridine-2-sulfonamide] |  |
|  |  | 2310 nM | 299% | Cc1ccccc1-c1nc(NS(=O)(=O)c2cccc(N3CCCC4(CC4C(=O)O)C3)n2)ccc1C(F)(F)F (centres unmarked) [Example 441, 5-(6-(N-(6-(o-tolyl)-5-(trifluoromethyl)pyridin-2-yl)sulfamoyl)pyridin-2-yl)-5-azaspiro[2.5]octane-1-carboxylic Acid] |  |
|  |  | 1920 nM | 705% | O=C(O)C1CC12CCN(c1cccc(S(=O)(=O)Nc3ccc(C(F)(F)F)c(-c4ccccc4C4CC4)n3)n1)C2 (centres unmarked) [Example 420, 5-(6-(N-(6-(2-cyclopropylphenyl)-5-(trifluoromethyl)pyridin-2-yl)sulfamoyl)pyridin-2-yl)-5-azaspiro[2.4]heptane-1-carboxylic Acid] |  |
| 226% | 2690 nM |  |  | Cc1cc(NS(=O)(=O)c2cccc(N)n2)nc(-c2c(C)cccc2C)c1 [Example 63, 6-amino-N-(6-(2,6-dimethylphenyl)-4-methylpyridin-2-yl)pyridine-2-sulfonamide] |  |
| 430% | 1720 nM |  |  | Nc1cccc(S(=O)(=O)Nc2ccc(Cl)c(-c3ccc(F)cc3C3CC3)n2)n1 [Example 27, 6-amino-N-(5-chloro-6-(2-cyclopropyl-4-fluorophenyl)pyridin-2-yl)pyridine-2-sulfonamide] |  |
|  |  | 1040 nM | 749% | CC1(C(=O)O)CCCN(c2cccc(S(=O)(=O)Nc3ccc(Cl)c(-c4ccccc4C4CCC4)n3)n2)C1 (centres unmarked) [Example 389, 1-(6-(N-(5-chloro-6-(2-cyclobutylphenyl)pyridin-2-yl)sulfamoyl)pyridin-2-yl)-3-methylpiperidine-3-carboxylic Acid] |  |
| 608% | 1360 nM |  |  | Cc1cccc(C)c1-c1nc(NS(=O)(=O)c2cccc(N)n2)cc(C(F)(F)F)c1Cl [Example 8, 6-amino-N-(5-chloro-6-(2,6-dimethylphenyl)-4-(trifluoromethyl)pyridin-2-yl)pyridine-2-sulfonamide] |  |
|  |  | 1750 nM |  | Cc1ccccc1-c1nc(NS(=O)(=O)c2cccc(N3CCC[C@@H]4[C@@H](C(=O)O)C[C@@H]43)n2)ccc1C(F)(F)F (racemic) [Example 443, rac-(1SR,6RS,7SR)-2-(6-(N-(6-(o-tolyl)-5-(trifluoromethyl)pyridin-2-yl)sulfamoyl)pyridin-2-yl)-2-azabicyclo[4.2.0]octane-7-carboxylic Acid] |  |
| 145% | 2830 nM |  |  | Cc1ccccc1-c1nc(NS(=O)(=O)c2cccc(N3CC[C@H](C(=O)O)C3)n2)ccc1C(F)(F)F [Example 348, (3S)-1-(6-{[6-(2-methylphenyl)-5-(trifluoromethyl)pyridin-2-yl]sulfamoyl}pyridin-2-yl)pyrrolidine-3-carboxylic Acid] |  |
| 597% | 1520 nM |  |  | Cc1cccc(C)c1-c1nc(NS(=O)(=O)c2cccc(N)n2)ccc1F [Example 9, 6-amino-N-(6-(2,6-dimethylphenyl)-5-fluoropyridin-2-yl)pyridine-2-sulfonamide] |  |
|  |  | 2370 nM |  | COc1ccc(Cl)c(-c2nc(NS(=O)(=O)c3cccc(N4CCC[C@@H](C(=O)O)C4)n3)ccc2C(F)(F)F)c1 [Example 449, (R)-1-(6-(N-(6-(2-chloro-5-methoxyphenyl)-5-(trifluoromethyl)pyridin-2-yl)sulfamoyl)pyridin-2-yl)piperidine-3-carboxylic Acid] |  |
| 486% | 1880 nM |  |  | Cc1ccccc1-c1nc(NS(=O)(=O)c2cccc(N)n2)ccc1Br [Example 23, 6-amino-N-(5-bromo-6-(o-tolyl)pyridin-2-yl)pyridine-2-sulfonamide] |  |
